# Results: patent US8455497B2, “Inhibitors of aspartyl protease” (Vertex Pharmaceuticals Incorporated, priority 1999, dated 2013)
# Key:
# HIV-1 (strain IIIB) = test: Antiviral activity assay in MT4 cells (propidium iodide based); format: cell-based; conditions: Human immunodeficiency virus 1, IIIB; wild type HIV-1 virus, MT4 cells; read-out: Wildtype virus - IC50
# Method in brief: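 MT4 cells infected with HIV-1 IIIB (MOI 100×TCID50, 1 hr, 37°C), diluted 6-fold into wells with serially diluted compound, incubated 5 days. Cells lysed with Nonidet-40; DNA content per well estimated by propidium iodide staining as the viability read-out, with mock-infected controls.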
# [1] = tested on: D545701-14 multi protease inhibitor resistant virus; test: Anti-viral activity against resistant virus D545701-14 in MT4 cells; format: cell-based, HIV-1; conditions: Human immunodeficiency virus 1, MT4, read-out: D545701-14 mutant - IC50, D545701-14 multi protease inhibitor resistant virus, MT4 cells
# [2] = tested on: EP13 multi protease inhibitor resistant virus; test: Anti-viral activity against resistant virus EP13 in MT4 cells; format: cell-based, HIV-1; conditions: Human immunodeficiency virus 1, MT4, read-out: EP13 mutant IC50, EP13 multi protease inhibitor resistant virus, MT4 cells
# Method in brief: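 MT4 cells infected for 1 h at 37 °C, MOI 100×TCID50, then diluted 6-fold onto pre-diluted compound and cultured 5 days (5% CO2). Viable-cell DNA content estimated by propidium iodide. EP13 carries protease mutations M46I, L63P, A71V, V82F/L, I84V, no RT mutations.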
Compound,IC50 (HIV-1 (strain IIIB)) [µM],IC50 [1] [µM],IC50 [2] [µM]
"CC(C)CN(C[C@@H](O)[C@H](Cc1ccc(OCc2cccc(F)c2)cc1)NC(=O)O[C@H]1CO[C@H]2OCC[C@H]21)S(=O)(=O)c1ccc2c(c1)OCO2 [Compound 378, (3R,3aS,6aR)-hexahydrofuro[2,3-b]furan-3-yl (1S,2R)-3-[(1,3-benzodioxol-5-ylsulfonyl)(isobutyl)amino]-1-{4-[(3-fluorobenzyl)oxy]benzyl}-2-hydroxypropylcarbamate]",0.001 to 0.01,0.01 to 0.1,0.001 to 0.01
"CC(C)CN(C[C@@H](O)[C@H](Cc1ccc(OCc2ccc(F)c(F)c2)cc1)NC(=O)O[C@H]1CO[C@H]2OCC[C@H]21)S(=O)(=O)c1ccc2c(c1)OCO2 [Compound 379, (3R,3aS,6aR)-hexahydrofuro[2,3-b]furan-3-yl (1S,2R)-3[(1,3-benzodioxol-5-ylsulfonyl)(isobutyl)amino]-1-{4-[(3,4-difluorobenzyl)oxy]benzyl}-2-hydroxypropylcarbamate]",0.001 to 0.01,0.001 to 0.01,0.001 to 0.01
"CC(C)CN(C[C@@H](O)[C@H](Cc1ccc(OCc2cc(F)cc(F)c2)cc1)NC(=O)O[C@H]1CO[C@H]2OCC[C@H]21)S(=O)(=O)c1ccc2c(c1)OCO2 [Compound 380, (3R,3aS,6aR)-hexahydrofuro[2,3-b]furan-3-yl (1S,2R)-3-[(1,3-benzodioxol-5-ylsulfonyl)(isobutyl)amino]-1-{4-[(3,5-difluorobenzyl)oxy]benzyl}-2-hydroxypropylcarbamate]",0.001 to 0.01,0.01 to 0.1,0.001 to 0.01
"CC(C)CN(C[C@@H](O)[C@H](Cc1ccc(OCc2ccc(C#N)cc2)cc1)NC(=O)O[C@H]1CO[C@H]2OCC[C@H]21)S(=O)(=O)c1ccc2c(c1)OCO2 [Compound 381, (3R,3aS,6aR)-hexahydrofuro[2,3-b]furan-3-yl (1S,2R)-3-[(1,3-benzodioxol-5-ylsulfonyl)(isobutyl)amino]-1-{4-[(4-cyanobenzyl)oxy]benzyl}-2-hydroxypropylcarbamate]",0.001 to 0.01,0.001 to 0.01,0.001 to 0.01
"CC(C)CN(C[C@@H](O)[C@H](Cc1ccc(OCc2ccccc2C#N)cc1)NC(=O)O[C@H]1CO[C@H]2OCC[C@H]21)S(=O)(=O)c1ccc2c(c1)OCO2 [Compound 382, (3R,3aS,6aR)-hexahydrofuro[2,3-b]furan-3-yl (1S,2R)-3-[(1,3-benzodioxol-5-ylsulfonyl)(isobutyl)amino]-1-{4-[(2-cyanobenzyl)oxy]benzyl}-2-hydroxypropylcarbamate]",0.001 to 0.01,0.001 to 0.01,0.001 to 0.01
"CC(C)CN(C[C@@H](O)[C@H](Cc1ccc(OCc2cccc([N+](=O)[O-])c2)cc1)NC(=O)O[C@H]1CO[C@H]2OCC[C@H]21)S(=O)(=O)c1ccc2c(c1)OCO2 [Compound 384, (3R,3aS,6aR)-hexahydrofuro[2,3-b]furan-3-yl (1S,2R)-3-[(1,3-benzodioxol-5-ylsulfonyl)(isobutyl)amino]-2-hydroxy-1-{4-[(3-nitrobenzyl)oxy]benzyl}propylcarbamate]",0.001 to 0.01,0.001 to 0.01,0.001 to 0.01
"Cc1noc(C)c1COc1ccc(C[C@H](NC(=O)O[C@H]2CO[C@H]3OCC[C@H]32)[C@H](O)CN(CC(C)C)S(=O)(=O)c2ccc3c(c2)OCO3)cc1 [Compound 385, (3R,3aS,6aR)-hexahydrofuro[2,3-b]furan-3-yl (1S,2R)-3-[(1,3-benzodioxol-5-ylsulfonyl)(isobutyl)amino]-1-{4-[(3,5-dimethyl-4-isoxazolyl)methoxy]benzyl}-2-hydroxypropylcarbamate]",0.001 to 0.01,0.01 to 0.1,0.001 to 0.01
"CC(C)CN(C[C@@H](O)[C@H](Cc1ccc(OCc2nnsc2Cl)cc1)NC(=O)O[C@H]1CO[C@H]2OCC[C@H]21)S(=O)(=O)c1ccc2c(c1)OCO2 [Compound 386, (3R,3aS,6aR)-hexahydrofuro[2,3-b]furan-3-yl (1S,2R)-3-[(1,3-benzodioxol-5-ylsulfonyl)(isobutyl)amino]-1-{4-[(5-chloro-1,2,3-thiadiazol-4-yl)methoxy]benzyl}-2-hydroxypropylcarbamate]",0.001 to 0.01,0.01 to 0.1,0.001 to 0.01
"CC(C)CN(C[C@@H](O)[C@H](Cc1ccc(OCc2csc3ccccc23)cc1)NC(=O)O[C@H]1CO[C@H]2OCC[C@H]21)S(=O)(=O)c1ccc2c(c1)OCO2 [Compound 387, (3R,3aS,6aR)-hexahydrofuro[2,3-b]furan-3-yl (1S,2R)-3-[(1,3-benzodioxol-5-ylsulfonyl)(isobutyl)amino]-1-[4-(1-benzothien-3-ylmethoxy)benzyl]-2-hydroxypropylcarbamate]",0.001 to 0.01,0.001 to 0.01,0.001 to 0.01
"CC(C)CN(C[C@@H](O)[C@H](Cc1ccc(OCc2ccccc2CS(=O)(=O)c2ccccc2)cc1)NC(=O)O[C@H]1CO[C@H]2OCC[C@H]21)S(=O)(=O)c1ccc2c(c1)OCO2 [Compound 388, (3R,3aS,6aR)-hexahydrofuro[2,3-b]furan-3-yl (1S,2R)-3-[(1,3-benzodioxol-5-ylsulfonyl)(isobutyl)amino]-2-hydroxy-1-[4-{(2-[(phenylsulfonyl)methyl]benzyl}oxy)benzyl]propylcarbamate]",0.001 to 0.01,0.001 to 0.01,0.001 to 0.01
"Cc1noc(C)c1-c1nc(COc2ccc(C[C@H](NC(=O)O[C@H]3CO[C@H]4OCC[C@H]43)[C@H](O)CN(CC(C)C)S(=O)(=O)c3ccc4c(c3)OCO4)cc2)no1 [Compound 389, (3R,3aS,6aR)-hexahydrofuro[2,3-b]furan-3-yl (1S,2R)-3-[(1,3-benzodioxol-5-ylsulfonyl)(isobutyl)amino]-1-(4-{[5-(3,5-dimethyl-4-isoxazolyl)-1,2,4-oxadiazol-3-yl]methoxy}benzyl)-2-hydroxypropylcarbamate]",0.001 to 0.01,0.001 to 0.01,0.001 to 0.01
"COc1ccc(-c2nc(COc3ccc(C[C@H](NC(=O)O[C@H]4CO[C@H]5OCC[C@H]54)[C@H](O)CN(CC(C)C)S(=O)(=O)c4ccc5c(c4)OCO5)cc3)no2)cc1 [Compound 391, (3R,3aS,6aR)-hexahydrofuro[2,3-b]furan-3-yl (1S,2R)-3-[(1,3-benzodioxol-5-ylsulfonyl)(isobutyl)amino]-2-hydroxy-1-(4-{[5-(4-methoxyphenyl)-1,2,4-oxadiazol-3-yl]methoxy}benzyl)propylcarbamate]",0.001 to 0.01,0.001 to 0.01,0.001 to 0.01
"CC(C)CN(C[C@@H](O)[C@H](Cc1ccc(OCc2ccc(-c3ccccc3C#N)cc2)cc1)NC(=O)O[C@H]1CO[C@H]2OCC[C@H]21)S(=O)(=O)c1ccc2c(c1)OCO2 [Compound 392, (3R,3aS,6aR)-hexahydrofuro[2,3-b]furan-3-yl (1S,2R)-3-[(1,3-benzodioxol-5-ylsulfonyl)(isobutyl)amino]-1-{4-[(2′-cyano[1,1-biphenyl]-4-yl)methoxy]benzyl}-2-hydroxypropylcarbamate]",0.001 to 0.01,0.001 to 0.01,0.001 to 0.01
"CC(C)CN(C[C@@H](O)[C@H](Cc1ccc(OCC#N)cc1)NC(=O)O[C@H]1CO[C@H]2OCC[C@H]21)S(=O)(=O)c1ccc2c(c1)OCO2 [Compound 393, (3R,3aS,6aR)-hexahydrofuro[2,3-b]furan-3-yl (1S,2R)-3-[(1,3-benzodioxol-5-ylsulfonyl)(isobutyl)amino]-1-[4-(cyanomethoxy)benzyl]-2-hydroxypropylcarbamate]",0.01 to 0.1,0.01 to 0.1,0.01 to 0.1
"O=C(N[C@@H](Cc1ccc(OCc2ccccc2)cc1)[C@H](O)CN(CC1CCCC1)S(=O)(=O)c1ccc2c(c1)OCO2)O[C@H]1CO[C@H]2OCC[C@H]21 [Compound 395, (3R,3aS,6aR)-hexahydrofuro[2,3-b]furan-3-yl (1S,2R)-3-[(1,3-benzodioxol-5-ylsulfonyl) (cyclopentylmethyl)amino]-1-[4-(benzyloxy)benzyl]-2-hydroxypropylcarbamate]",0.001 to 0.01,0.001 to 0.01,0.001 to 0.01
"N#CCOc1ccc(C[C@H](NC(=O)O[C@H]2CO[C@H]3OCC[C@H]32)[C@H](O)CN(CC2CCCC2)S(=O)(=O)c2ccc3c(c2)OCO3)cc1 [Compound 397, (3R,3aS,6aR)-hexahydrofuro[2,3-b]furan-3-yl (1S,2R)-3-[(1,3-benzodioxol-5-ylsulfonyl)(cyclopentylmethyl)amino]-1-[4-(cyanomethoxy)benzyl]-2-hydroxypropylcarbamate]",0.01 to 0.1,0.001 to 0.01,0.001 to 0.01
